From patent US20210179600A1, “OXAZOLE AND THIAZOLE DERIVATIVES AS INHIBITORS OF ASK1” (Hepagene Therapeutics (HK) Limited, priority 2017, published 2021)
pEC50: −log10 of the molar value.

Target: T1, Recombinant human ASK1 kinase (Homo sapiens, UniProt Q99683)
T1 construct: purchased Invitrogen Inc
T1 sequence (Q99683 1-1374): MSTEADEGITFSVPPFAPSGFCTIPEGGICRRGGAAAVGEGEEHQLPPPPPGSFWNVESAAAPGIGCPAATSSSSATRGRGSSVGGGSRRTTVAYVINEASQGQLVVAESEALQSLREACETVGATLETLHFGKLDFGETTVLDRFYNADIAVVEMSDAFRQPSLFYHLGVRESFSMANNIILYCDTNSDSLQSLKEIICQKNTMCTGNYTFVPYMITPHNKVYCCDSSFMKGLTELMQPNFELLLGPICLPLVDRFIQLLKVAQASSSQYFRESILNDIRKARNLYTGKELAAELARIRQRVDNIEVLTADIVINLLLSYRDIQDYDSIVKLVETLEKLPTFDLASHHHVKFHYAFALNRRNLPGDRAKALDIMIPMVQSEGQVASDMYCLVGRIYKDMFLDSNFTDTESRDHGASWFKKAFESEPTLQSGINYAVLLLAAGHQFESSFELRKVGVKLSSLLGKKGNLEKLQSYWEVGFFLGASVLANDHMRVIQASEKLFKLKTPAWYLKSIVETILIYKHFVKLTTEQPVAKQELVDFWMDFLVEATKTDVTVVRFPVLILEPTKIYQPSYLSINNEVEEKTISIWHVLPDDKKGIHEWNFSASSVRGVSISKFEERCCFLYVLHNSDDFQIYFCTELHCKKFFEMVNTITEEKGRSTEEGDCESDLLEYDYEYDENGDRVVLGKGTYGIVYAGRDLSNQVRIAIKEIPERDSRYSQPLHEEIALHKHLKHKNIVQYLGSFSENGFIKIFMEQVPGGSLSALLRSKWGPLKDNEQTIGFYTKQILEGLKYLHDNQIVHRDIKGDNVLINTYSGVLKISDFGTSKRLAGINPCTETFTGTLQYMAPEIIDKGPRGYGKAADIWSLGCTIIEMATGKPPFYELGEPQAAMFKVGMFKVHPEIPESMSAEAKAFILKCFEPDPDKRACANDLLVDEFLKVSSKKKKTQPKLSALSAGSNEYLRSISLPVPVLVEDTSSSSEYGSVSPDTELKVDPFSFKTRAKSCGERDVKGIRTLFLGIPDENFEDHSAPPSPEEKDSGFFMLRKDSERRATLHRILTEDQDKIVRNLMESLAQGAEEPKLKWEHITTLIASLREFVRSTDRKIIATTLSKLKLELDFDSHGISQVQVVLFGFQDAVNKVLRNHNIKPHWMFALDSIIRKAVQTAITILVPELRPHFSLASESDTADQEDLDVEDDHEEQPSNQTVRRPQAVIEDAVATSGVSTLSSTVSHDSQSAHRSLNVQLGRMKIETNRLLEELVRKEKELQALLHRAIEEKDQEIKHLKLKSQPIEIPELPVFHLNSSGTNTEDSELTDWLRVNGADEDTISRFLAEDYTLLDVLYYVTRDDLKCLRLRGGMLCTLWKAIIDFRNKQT
Assay: ASK1 kinase HTRF assay (KinEASE-STK)
Assay type: biochemical
Conditions: HTRF detection; 3 nM ASK1 kinase, 1 uM STK-substrate-biotin
Protocol: Reagents: Recombinant human ASK1 kinase was from Invitrogen Inc. HTRF KinEASE™-STK S3 kit was obtained from Cisbio (Bedford, Mass.). All other reagents were of the highest grade commercially available.
Assay: The assay measures the phosphorylation level of a biotinylatd peptide substrate by the ASK1 kinase using HTRF detection. ASK1 kinase assay is based on HTRF KinEASE™-STK manual from Cisbio. Test compound, 1 uM STK-substrate-biotin, 3 nM of ASK1 kinase are incubated with 1*Kinase buffer with 5 mM MgCl2 and 1 mM DTT. 250 nM Sa-XL 665(4*) and STK-antibody-Cryptate work solution are added to stop the reaction and phosphorylated peptide substrate is detected using Envision 2104 Multilabeled reader from PerkinElmer. The fluorescence is measured at 615 nm (Cryptate) and 665 nm (XL665) and a ratio of 665 nm/615 nm is calculated for each well. The resulting TR-FRET level (a ratio of 665 nm/615 nm) is proportional to the phosphorylation level of substrate.

Question: With `CC(C)N1CCN(c2cccc(-c3cnc(-c4cccc(-c5nncn5C(C)C)n4)o3)c2)CC1` [Compound I-117] as the molecule, how does the pEC50 read?
Answer: Its pEC50 is no less than 7.30.

Question: How did the pEC50 turn out when `CC(C)n1cnnc1-c1cccc(-c2ncc(-c3cccc(N4CCN(C5CC5)CC4)c3)o2)n1` [Compound I-118] was run?
Answer: Its pEC50 is no less than 7.30.

Question: How did the pEC50 turn out when `CC(C)n1cnnc1-c1cccc(-c2ncc(-c3cccc(N4CCN(S(C)(=O)=O)CC4)c3)o2)n1` [Compound I-119] was run?
Answer: Its pEC50 is no less than 7.30.

Question: With `CC(C)n1cnnc1-c1cccc(-c2ncc(-c3cccc(N4CCCCC4)c3)o2)n1` [Compound I-120] as the molecule, how does the pEC50 read?
Answer: Its pEC50 is 6.30 to 7.30.

Question: `CC(C)n1cnnc1-c1cccc(-c2ncc(-c3cccc(N4C5CCCC4CC5)c3)o2)n1` [Compound I-121] was tested. Which pEC50 did it give?
Answer: Its pEC50 is 6.30 to 7.30.

Question: With `CC(C)n1cnnc1-c1cccc(-c2ncc(-c3cccc(N4CCC(N5CCOCC5)CC4)c3)o2)n1` [Compound I-122] as the molecule, how does the pEC50 read?
Answer: Its pEC50 is 6.30 to 7.30.

Question: How did the pEC50 turn out when `CC(C)n1cnnc1-c1cccc(-c2ncc(-c3cccc(C4CCNCC4)c3)o2)n1` [Compound I-123] was run?
Answer: Its pEC50 is no less than 7.30.

Question: `CC(C)n1cnnc1-c1cccc(-c2ncc(-c3cccc(C4=CCN(C(=O)OC(C)(C)C)C4)c3)o2)n1` [Compound I-124] was tested. Which pEC50 did it give?
Answer: Its pEC50 is 6.30 to 7.30.

Question: `CC(C)n1cnnc1-c1cccc(-c2ncc(-c3cccc(N4CCCC4)c3)o2)n1` [Compound I-125] was tested. Which pEC50 did it give?
Answer: The pEC50 was no less than 7.30.

Question: How did the pEC50 turn out when `C[C@H](CO)n1cnnc1-c1cccc(-c2ncc(-c3cccc(N4CCCC4)c3)o2)n1` [Compound I-126] was run?
Answer: Its pEC50 is no less than 7.30.

Question: How did the pEC50 turn out when `CC(C)n1cnnc1-c1cccc(-c2ncc(-c3cccc(N4CCC(N)C4)c3)o2)n1` (stereo not shown) [Compound I-127] was run?
Answer: Its pEC50 is no less than 7.30.

Question: With `CC(C)n1cnnc1-c1cccc(-c2ncc(-c3cccc(N4CCC(NC(=O)OC(C)(C)C)C4)c3)o2)n1` (stereo not shown) [Compound I-128] as the molecule, how does the pEC50 read?
Answer: Its pEC50 is no less than 7.30.

Question: With `C[C@H](CO)n1cnnc1-c1cccc(-c2ncc(-c3cccc(C4CCCCC4)c3)o2)n1` [Compound I-129] as the molecule, how does the pEC50 read?
Answer: The pEC50 was no less than 7.30.

Question: With `C[C@H](CO)n1cnnc1-c1cccc(-c2ncc(-c3cccc(C4=CCCCC4)c3)o2)n1` [Compound I-130] as the molecule, how does the pEC50 read?
Answer: Its pEC50 is 6.30 to 7.30.

Question: How did the pEC50 turn out when `CC(C)n1cnnc1-c1cccc(-c2ncc(-c3cccc(C4CCCCC4)c3)o2)n1` [Compound I-131] was run?
Answer: The pEC50 was 5.30 to 6.30.

Question: With `CC(C)n1cnnc1-c1cccc(-c2ncc(-c3cccc(C4=CCCCC4)c3)o2)n1` [Compound I-132] as the molecule, how does the pEC50 read?
Answer: The pEC50 was 6.30 to 7.30.

Question: How did the pEC50 turn out when `CC(C)n1cnnc1-c1cccc(-c2ncc(-c3cccc(C4CCCC4)c3)o2)n1` [Compound I-133] was run?
Answer: Its pEC50 is 6.30 to 7.30.

Question: With `CC(C)n1cnnc1-c1cccc(-c2ncc(-c3cccc(C4=CCCC4)c3)o2)n1` [Compound I-134] as the molecule, how does the pEC50 read?
Answer: The pEC50 was 6.30 to 7.30.

Question: `C[C@H](CO)n1cnnc1-c1cccc(-c2ncc(-c3cccc(C4CCCC4)c3)o2)n1` [Compound I-135] was tested. Which pEC50 did it give?
Answer: The pEC50 was no less than 7.30.

Question: With `C[C@H](CO)n1cnnc1-c1cccc(-c2ncc(-c3cccc(C4=CCCC4)c3)o2)n1` [Compound I-136] as the molecule, how does the pEC50 read?
Answer: Its pEC50 is no less than 7.30.

Question: With `CC(C)n1cnnc1-c1cccc(-c2ncc(-c3cccc(C4=CCCCCC4)c3)o2)n1` [Compound I-138] as the molecule, how does the pEC50 read?
Answer: Its pEC50 is 6.30 to 7.30.

Question: How did the pEC50 turn out when `CC(C)n1cnnc1-c1cccc(-c2ncc(-c3nccs3)o2)n1` [Compound I-141] was run?
Answer: Its pEC50 is 6.30 to 7.30.

Question: `CC(C)n1cnnc1-c1cccc(-c2ncc(-c3nc4ccccc4o3)o2)n1` [Compound I-142] was tested. Which pEC50 did it give?
Answer: The pEC50 was 6.30 to 7.30.

Question: How did the pEC50 turn out when `CC(C)n1cnnc1-c1cccc(-c2ncc(-c3cccc(-n4cnc(C5CC5)c4)c3)o2)n1` [Compound I-144] was run?
Answer: The pEC50 was no less than 7.30.

Question: How did the pEC50 turn out when `CC(C)n1cnnc1-c1cc(-c2ncc(-c3ccccc3)o2)cs1` [II-01, 3-[4-(5-Phenyl-1,3-oxazol-2-yl)thiophen-2-yl]-4-(propan-2-yl)-4H-1,2,4-triazole] was run?
Answer: Its pEC50 is 6.30 to 7.30.
